Like-named read-outs stand apart in the source and are kept apart here. Positions of bridges follow the written chain, without caps; N, C: chain ends. Non-standard residues stand in square brackets, D forms with d. Residues, ends and D or L forms follow the SMILES beside them. Pra = C#CC[C@H](N)C(=O)O

Common to all, as to assay: cell-based
Assay [1] deals with T1, hNav1.7 (Homo sapiens, UniProt Q15858). Particulars: for IC50: Nav1.7 Use IC50.
In assay [2] the target is T2, hNav1.4 (Homo sapiens, UniProt P35499).
For assay [3], the target named is T3, hNav1.5 (Homo sapiens, UniProt Q14524).
Assay [4] deals with T1, hNav1.7. The class given is cell-based. Particulars: for IC50: IonWorks Quattro, use-dependent block, hNav1.7, read-out: IWQ Use Nav1.7.
Assay [5] concerns the target T3, hNav1.5. The conditions noted are these: IonWorks Quattro, use-dependent block, hNav1.5; read-out: IWQ Use Nav1.5.
Assay [6] concerns the target T2, hNav1.4. The conditions noted are these: IonWorks Quattro, use-dependent block, hNav1.4; read-out: IWQ Use Nav1.4.
The target in a further assay is hNav1.3 (Homo sapiens, UniProt Q9NY46). Particulars: IonWorks Quattro, use-dependent block, hNav1.3; read-out: IWQ Use Nav1.3.
The mark [7] stands for this setting: ratio of IWQ Use values, Nav1.7 over Nav1.3.

T3 sequence (Q14524 whole entry, looked up): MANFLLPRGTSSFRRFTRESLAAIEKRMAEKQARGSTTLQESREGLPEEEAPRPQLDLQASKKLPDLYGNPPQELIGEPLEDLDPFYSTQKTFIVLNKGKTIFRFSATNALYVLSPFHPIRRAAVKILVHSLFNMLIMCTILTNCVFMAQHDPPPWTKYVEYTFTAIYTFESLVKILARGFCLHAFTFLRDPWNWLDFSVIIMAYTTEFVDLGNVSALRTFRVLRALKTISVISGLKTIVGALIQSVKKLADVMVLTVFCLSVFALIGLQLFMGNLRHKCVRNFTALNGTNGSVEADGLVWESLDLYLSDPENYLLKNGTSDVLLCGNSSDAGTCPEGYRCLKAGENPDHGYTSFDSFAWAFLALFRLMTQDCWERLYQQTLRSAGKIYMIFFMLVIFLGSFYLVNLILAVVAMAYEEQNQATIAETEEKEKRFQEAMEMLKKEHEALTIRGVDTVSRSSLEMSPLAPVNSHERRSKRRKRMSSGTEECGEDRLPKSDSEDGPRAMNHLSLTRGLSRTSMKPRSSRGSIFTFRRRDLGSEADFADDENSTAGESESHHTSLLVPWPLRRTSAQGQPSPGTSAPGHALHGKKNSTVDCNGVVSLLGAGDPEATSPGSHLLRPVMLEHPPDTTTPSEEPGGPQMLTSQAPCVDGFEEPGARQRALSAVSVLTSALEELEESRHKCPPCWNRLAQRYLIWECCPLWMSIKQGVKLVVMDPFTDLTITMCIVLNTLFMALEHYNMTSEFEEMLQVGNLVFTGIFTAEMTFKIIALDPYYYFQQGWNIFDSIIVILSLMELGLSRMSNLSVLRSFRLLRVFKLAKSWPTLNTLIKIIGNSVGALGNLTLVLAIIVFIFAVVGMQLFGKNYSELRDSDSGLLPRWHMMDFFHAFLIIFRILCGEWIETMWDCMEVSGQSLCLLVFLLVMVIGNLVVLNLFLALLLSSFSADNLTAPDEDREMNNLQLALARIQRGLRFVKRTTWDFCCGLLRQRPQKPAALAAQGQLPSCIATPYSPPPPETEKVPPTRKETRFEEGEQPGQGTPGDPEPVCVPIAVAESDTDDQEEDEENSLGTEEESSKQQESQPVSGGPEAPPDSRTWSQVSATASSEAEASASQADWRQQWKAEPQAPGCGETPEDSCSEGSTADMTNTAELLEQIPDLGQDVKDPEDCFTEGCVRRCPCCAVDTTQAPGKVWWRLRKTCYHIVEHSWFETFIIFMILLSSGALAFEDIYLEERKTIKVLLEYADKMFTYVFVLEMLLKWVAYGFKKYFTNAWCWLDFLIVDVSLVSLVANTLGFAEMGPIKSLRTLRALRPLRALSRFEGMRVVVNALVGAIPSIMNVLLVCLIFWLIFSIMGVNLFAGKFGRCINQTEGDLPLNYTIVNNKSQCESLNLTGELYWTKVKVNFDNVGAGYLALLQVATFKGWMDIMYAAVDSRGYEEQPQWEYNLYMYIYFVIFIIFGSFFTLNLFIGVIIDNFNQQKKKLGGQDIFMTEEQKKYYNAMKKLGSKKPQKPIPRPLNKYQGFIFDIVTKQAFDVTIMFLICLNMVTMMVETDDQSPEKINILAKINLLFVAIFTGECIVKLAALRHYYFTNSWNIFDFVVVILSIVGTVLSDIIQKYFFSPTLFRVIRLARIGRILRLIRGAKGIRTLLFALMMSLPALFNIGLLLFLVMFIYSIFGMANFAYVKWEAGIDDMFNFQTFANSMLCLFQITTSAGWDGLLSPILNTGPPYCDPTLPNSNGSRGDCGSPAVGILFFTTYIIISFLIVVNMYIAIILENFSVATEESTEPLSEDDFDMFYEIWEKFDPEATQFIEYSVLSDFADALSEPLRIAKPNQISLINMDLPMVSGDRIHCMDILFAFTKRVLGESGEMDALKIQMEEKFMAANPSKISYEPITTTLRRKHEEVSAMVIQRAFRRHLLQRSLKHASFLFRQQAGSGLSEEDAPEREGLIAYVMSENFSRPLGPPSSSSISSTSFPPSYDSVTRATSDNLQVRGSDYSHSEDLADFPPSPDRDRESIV
Sequence of hNav1.3 (Q9NY46 whole entry, looked up): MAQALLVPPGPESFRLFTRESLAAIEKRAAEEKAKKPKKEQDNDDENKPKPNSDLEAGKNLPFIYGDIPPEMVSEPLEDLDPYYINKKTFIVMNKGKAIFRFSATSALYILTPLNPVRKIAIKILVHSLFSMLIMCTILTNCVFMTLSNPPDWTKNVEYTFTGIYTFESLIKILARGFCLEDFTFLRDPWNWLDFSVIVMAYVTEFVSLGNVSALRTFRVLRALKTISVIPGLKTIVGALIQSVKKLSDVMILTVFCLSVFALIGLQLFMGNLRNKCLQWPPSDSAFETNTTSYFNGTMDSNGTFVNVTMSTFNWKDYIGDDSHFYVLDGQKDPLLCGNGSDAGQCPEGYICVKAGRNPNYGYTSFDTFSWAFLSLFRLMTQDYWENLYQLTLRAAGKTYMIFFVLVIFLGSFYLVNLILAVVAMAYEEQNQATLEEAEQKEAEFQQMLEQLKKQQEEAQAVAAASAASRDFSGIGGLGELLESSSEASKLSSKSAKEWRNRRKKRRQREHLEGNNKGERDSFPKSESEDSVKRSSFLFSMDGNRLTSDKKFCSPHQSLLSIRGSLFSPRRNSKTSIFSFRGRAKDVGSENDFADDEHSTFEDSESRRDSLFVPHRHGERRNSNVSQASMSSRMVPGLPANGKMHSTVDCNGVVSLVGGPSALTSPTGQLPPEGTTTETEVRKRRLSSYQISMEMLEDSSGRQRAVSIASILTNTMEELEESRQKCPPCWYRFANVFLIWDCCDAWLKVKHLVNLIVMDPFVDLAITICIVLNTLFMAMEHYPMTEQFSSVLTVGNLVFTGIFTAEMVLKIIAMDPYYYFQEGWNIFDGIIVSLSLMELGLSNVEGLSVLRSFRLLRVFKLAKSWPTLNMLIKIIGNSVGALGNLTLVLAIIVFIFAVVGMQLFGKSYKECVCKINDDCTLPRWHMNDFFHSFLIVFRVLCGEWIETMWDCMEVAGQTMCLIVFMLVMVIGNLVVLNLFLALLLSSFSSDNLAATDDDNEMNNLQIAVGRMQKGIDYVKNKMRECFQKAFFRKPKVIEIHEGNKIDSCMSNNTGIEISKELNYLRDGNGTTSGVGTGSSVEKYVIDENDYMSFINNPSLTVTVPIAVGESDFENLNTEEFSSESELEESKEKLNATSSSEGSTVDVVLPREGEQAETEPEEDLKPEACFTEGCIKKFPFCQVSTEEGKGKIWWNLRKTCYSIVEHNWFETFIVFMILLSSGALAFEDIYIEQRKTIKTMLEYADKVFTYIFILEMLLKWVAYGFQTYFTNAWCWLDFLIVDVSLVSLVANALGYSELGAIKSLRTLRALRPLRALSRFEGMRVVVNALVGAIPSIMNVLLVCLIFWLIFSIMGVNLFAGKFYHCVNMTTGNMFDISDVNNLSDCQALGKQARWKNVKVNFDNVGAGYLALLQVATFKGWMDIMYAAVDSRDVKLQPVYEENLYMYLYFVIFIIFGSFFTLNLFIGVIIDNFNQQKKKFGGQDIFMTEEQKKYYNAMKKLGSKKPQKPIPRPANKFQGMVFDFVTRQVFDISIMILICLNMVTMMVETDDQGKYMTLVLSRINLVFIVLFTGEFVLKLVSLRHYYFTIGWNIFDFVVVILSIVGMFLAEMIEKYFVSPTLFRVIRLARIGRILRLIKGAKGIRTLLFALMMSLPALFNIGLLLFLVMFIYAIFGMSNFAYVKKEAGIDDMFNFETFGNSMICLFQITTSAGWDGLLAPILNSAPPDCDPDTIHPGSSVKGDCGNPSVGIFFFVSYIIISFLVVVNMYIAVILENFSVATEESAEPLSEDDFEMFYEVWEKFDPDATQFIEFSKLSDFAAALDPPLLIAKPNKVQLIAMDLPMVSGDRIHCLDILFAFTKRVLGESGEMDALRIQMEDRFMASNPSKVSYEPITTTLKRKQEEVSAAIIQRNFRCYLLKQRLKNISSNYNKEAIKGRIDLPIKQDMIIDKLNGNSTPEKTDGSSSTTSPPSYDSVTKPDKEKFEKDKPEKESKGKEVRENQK

For `CC[C@H](C)[C@@H]1NC(=O)[C@@H]2CSSC[C@@H]3NC(=O)[C@H](C(C)C)NC(=O)[C@H](CC(C)C)NC(=O)[C@H](CC(N)=O)NC(=O)[C@@H]4CCCN4C(=O)[C@H](CCCNC(=N)N)NC(=O)[C@H](CSSC[C@H](NC(=O)[C@@H](N)CC(=O)O)C(=O)N[C@@H](CC(C)C)C(=O)NCC(=O)N[C@@H](C)C(=O)N[C@@H](CC(C)C)C(=O)N[C@@H](CCCNC(=N)N)C(=O)N[C@@H](CCCCN)C(=O)N2)NC(=O)[C@H](CSSC[C@@H](C(=O)N[C@@H](CCCCN)C(=O)N[C@@H](Cc2ccc(O)cc2)C(=O)N[C@H](C(=O)N[C@@H](Cc2ccccc2)C(N)=O)C(C)C)NC(=O)[C@H](Cc2c[nH]c4ccccc24)NC(=O)[C@H](CCCNC(=N)N)NC(=O)[C@H](Cc2c[nH]cn2)NC(=O)[C@H](CC(C)C)NC(=O)[C@H](CCCNC(=N)N)NC(=O)[C@H](CO)NC3=O)NC(=O)[C@H](CCCCN)NC(=O)[C@H](CC(=O)O)NC(=O)[C@H](Cc2cn(CCOCCOCCOCCOCCOCCOCCOCCOCCOCCOCCOCCNC(=O)CSCCO)nn2)NC(=O)[C@H](CC(=O)O)NC(=O)[C@@H]2CCCN2C1=O`, on hNav1.7 [1], the “Nav1.4/Nav1.7 Use” value is greater than 476, the “Nav1.5/Nav1.7 Use” value is greater than 476 and the IC50 was found to be 0.021 µM. In addition, the IC50 at hNav1.4 [2] (Nav1.4 Use IC50) is greater than 10 µM. In addition, the IC50 against hNav1.5 [3] was greater than 10 µM.
On to `CC(C)C[C@@H]1NC(=O)[C@@H](NC(=O)[C@@H](N)CC(=O)O)CSSC[C@@H]2NC(=O)[C@@H]3CSSC[C@@H](C(=O)N[C@@H](CCCCN)C(=O)N[C@@H](Cc4ccc(O)cc4)C(=O)N[C@H](C(=O)N[C@@H](Cc4ccccc4)C(N)=O)C(C)C)NC(=O)[C@H](Cc4c[nH]c5ccccc45)NC(=O)[C@H](CCCNC(=N)N)NC(=O)[C@H](Cc4c[nH]cn4)NC(=O)[C@H](CC(C)C)NC(=O)[C@H](CCCNC(=N)N)NC(=O)[C@H](CO)NC(=O)[C@H](CSSC[C@H](NC(=O)[C@H](CCCCN)NC(=O)[C@H](CCCNC(=N)N)NC(=O)[C@H](Cc4ccccc4)NC(=O)[C@H](C)NC(=O)CNC1=O)C(=O)N[C@@H](CCC(=O)O)C(=O)N1CCC[C@H]1C(=O)N[C@@H](CC(=O)O)C(=O)N[C@@H](Cc1cn(CCOCCOCCOCCOCCOCCOCCOCCOCCOCCOCCOCCNC(=O)CSCCO)nn1)C(=O)N[C@@H](CC(=O)O)C(=O)N[C@@H](CCCCN)C(=O)N3)NC(=O)[C@H](C(C)C)NC(=O)[C@H](CC(C)C)NC(=O)[C@H](CC(N)=O)NC(=O)[C@@H]1CCCN1C(=O)[C@H](CCCNC(=N)N)NC2=O`, for which the “Nav1.4/Nav1.7 Use” value on hNav1.7 [1] is greater than 476. The “Nav1.5/Nav1.7 Use” value at hNav1.7 [1] is greater than 476. For the same compound, the figures for the IC50 against hNav1.7 [1], against hNav1.4 [2] (Nav1.4 Use IC50) and at hNav1.5 [3] were 0.021 µM, greater than 10 µM and greater than 10 µM, respectively.
For `C#CC[C@@H]1NC(=O)[C@H](CC(=O)O)NC(=O)[C@@H]2CCCN2C(=O)[C@H](CCC(=O)O)NC(=O)[C@@H]2CSSC[C@@H]3NC(=O)[C@H](C(C)C)NC(=O)[C@H](CC(C)C)NC(=O)[C@H](CC(N)=O)NC(=O)[C@@H]4CCCN4C(=O)[C@H](CCCNC(=N)N)NC(=O)[C@H](CSSC[C@H](NC(=O)[C@@H](N)CC(=O)O)C(=O)N[C@@H](CC(C)C)C(=O)NCC(=O)N[C@@H](C)C(=O)N[C@@H](CC(C)C)C(=O)N[C@@H](CCCNC(=N)N)C(=O)N[C@@H](CCCCN)C(=O)N2)NC(=O)[C@H](CSSC[C@@H](C(=O)N[C@@H](CCCCN)C(=O)N[C@@H](Cc2ccc(O)cc2)C(=O)N[C@H](C(=O)N[C@@H](Cc2ccccc2)C(N)=O)C(C)C)NC(=O)[C@H](Cc2c[nH]c4ccccc24)NC(=O)[C@H](CCCNC(=N)N)NC(=O)[C@H](Cc2c[nH]cn2)NC(=O)[C@H](CC(C)C)NC(=O)[C@H](CCCNC(=N)N)NC(=O)[C@H](CO)NC3=O)NC(=O)[C@H](CCCCN)NC(=O)[C@H](CC(=O)O)NC1=O` [compound 800] (H-DCLGALRKCEPD[Pra]DKCCRPNLVCSRLHRWCKYVF-NH2; disulfide 2-17, 9-23, 16-30), the IC50 at hNav1.7 [4] was 0.7 µM; on hNav1.5 [5], greater than 50 µM; on hNav1.4 [6], greater than 50 µM; on hNav1.3, 1.4 µM. Further, the Nav1.7/Nav1.3 at hNav1.7 [4] (ratio of IWQ Use values Nav1.7 to Nav1.3) is 0.5.
Take `CC[C@H](C)[C@@H]1NC(=O)[C@@H]2CSSC[C@@H]3NC(=O)[C@H](C(C)C)NC(=O)[C@H](CC(C)C)NC(=O)[C@H](CC(N)=O)NC(=O)[C@@H]4CCCN4C(=O)[C@H](CCCNC(=N)N)NC(=O)[C@H](CSSC[C@H](NC(=O)[C@H](CC(=O)O)NC(=O)[C@H](CO)NC(=O)CN)C(=O)N[C@@H](CC(C)C)C(=O)NCC(=O)N[C@@H](C)C(=O)N[C@@H](CC(C)C)C(=O)N[C@@H](CCCNC(=N)N)C(=O)N[C@@H](CCCCN)C(=O)N2)NC(=O)[C@H](CSSC[C@@H](C(=O)N[C@@H](CCCCN)C(=O)N[C@@H](Cc2ccc(O)cc2)C(=O)N[C@H](C(=O)N[C@@H](Cc2ccccc2)C(=O)N[C@@H](Cc2c[nH]c4ccccc24)C(=O)O)C(C)C)NC(=O)[C@H](Cc2c[nH]c4ccccc24)NC(=O)[C@H](CCCNC(=N)N)NC(=O)[C@H](Cc2c[nH]cn2)NC(=O)[C@H]([C@@H](C)O)NC(=O)[C@H](CCCNC(=N)N)NC(=O)[C@H](CO)NC3=O)NC(=O)[C@H](CCCCN)NC(=O)[C@H](CC(=O)O)NC(=O)[C@H](CC(N)=O)NC(=O)[C@H](CC(=O)O)NC(=O)[C@@H]2CCCN2C1=O` [compound 816] (H-GSDCLGALRKCIPDNDKCCRPNLVCSRTHRWCKYVFW-OH; disulfide 4-19, 11-25, 18-32): the IC50 at hNav1.7 [4], on hNav1.5 [5], on hNav1.4 [6] and on hNav1.3 was greater than 5 µM each time.
Take `CC[C@H](C)[C@@H]1NC(=O)[C@@H]2CSSC[C@@H]3NC(=O)[C@H](C(C)C)NC(=O)[C@H](CC(C)C)NC(=O)[C@H](CC(N)=O)NC(=O)[C@@H]4CCCN4C(=O)[C@H](CCCNC(=N)N)NC(=O)[C@H](CSSC[C@H](NC(=O)[C@H](CC(=O)O)NC(=O)[C@H](CO)NC(=O)CN)C(=O)N[C@@H](CC(C)C)C(=O)NCC(=O)N[C@@H](C)C(=O)N[C@@H](CC(C)C)C(=O)N[C@@H](CCCNC(=N)N)C(=O)N[C@@H](CCCCN)C(=O)N2)NC(=O)[C@H](CSSC[C@@H](C(=O)N[C@@H](CCCCN)C(=O)N[C@@H](Cc2ccc(O)cc2)C(=O)N[C@H](C(=O)N[C@@H](Cc2ccccc2)C(=O)N[C@@H](Cc2ccccc2)C(=O)O)C(C)C)NC(=O)[C@H](Cc2c[nH]c4ccccc24)NC(=O)[C@H](CCCNC(=N)N)NC(=O)[C@H](Cc2c[nH]cn2)NC(=O)[C@H]([C@@H](C)O)NC(=O)[C@H](CCCNC(=N)N)NC(=O)[C@H](CO)NC3=O)NC(=O)[C@H](CCCCN)NC(=O)[C@H](CC(=O)O)NC(=O)[C@H](CC(N)=O)NC(=O)[C@H](CC(=O)O)NC(=O)[C@@H]2CCCN2C1=O` [compound 820] (H-GSDCLGALRKCIPDNDKCCRPNLVCSRTHRWCKYVFF-OH; disulfide 4-19, 11-25, 18-32): the IC50 on hNav1.7 [4] was 0.5 µM; on hNav1.5 [5], greater than 5 µM; on hNav1.4 [6], greater than 5 µM; on hNav1.3 it was 0.5 µM. In addition, at hNav1.7 [4] (setting [7]), the Nav1.7/Nav1.3 worked out at 1.0.
In the case of `CC[C@H](C)[C@@H]1NC(=O)[C@@H]2CSSC[C@@H]3NC(=O)[C@H](C(C)C)NC(=O)[C@H](CC(C)C)NC(=O)[C@H](CC(N)=O)NC(=O)[C@@H]4CCCN4C(=O)[C@H](CCCNC(=N)N)NC(=O)[C@H](CSSC[C@H](NC(=O)[C@H](CC(=O)O)NC(=O)[C@H](CO)NC(=O)CN)C(=O)N[C@@H](CC(C)C)C(=O)NCC(=O)N[C@@H](C)C(=O)N[C@@H](CC(C)C)C(=O)N[C@@H](CCCNC(=N)N)C(=O)N[C@@H](CCCCN)C(=O)N2)NC(=O)[C@H](CSSC[C@@H](C(=O)N[C@@H](CCCCN)C(=O)N[C@@H](Cc2ccc(O)cc2)C(=O)N[C@H](C(=O)N[C@@H](Cc2ccccc2)C(=O)O)C(C)C)NC(=O)[C@H](Cc2c[nH]c4ccccc24)NC(=O)[C@H](CCCNC(=N)N)NC(=O)[C@H](Cc2c[nH]cn2)NC(=O)[C@H]([C@@H](C)O)NC(=O)[C@H](CCCNC(=N)N)NC(=O)[C@H](CO)NC3=O)NC(=O)[C@H](CCCCN)NC(=O)[C@H](CC(=O)O)NC(=O)[C@H](CC(N)=O)NC(=O)[C@H](CC(=O)O)NC(=O)[C@@H]2CCCN2C1=O` [compound 822] (H-GSDCLGALRKCIPDNDKCCRPNLVCSRTHRWCKYVF-OH; disulfide 4-19, 11-25, 18-32), the IC50 was 3.7 µM at hNav1.7 [4], greater than 5 µM on hNav1.5 [5], greater than 5 µM on hNav1.4 [6] and 3.7 µM on hNav1.3. At hNav1.7 [4] (setting [7]), the Nav1.7/Nav1.3 turned out to be 1.0.
Regarding “Biotin-Ahx-[Ala5,Phe6,Atz(2 kDa EtO-PEG*-{Biotin-Ahx-[Ala5,Phe6,Atz13*,Leu26,Arg28]GpTx-1(1-34)})13,Leu26,Arg28]GpTx-1(1-34) [Homodimeric Conjugate 4]”, the results for the IC50 on hNav1.4 [2] (read-out: Nav1.4 Use IC50) and at hNav1.5 [3] (read-out: Nav1.5 Use IC50) were 3.43 µM and greater than 10 µM, respectively.

Source of the values: patent US9340590B2 (priority 2011, dated 2016).
